A short description of series [1]: in vitro stability, incubation in PBS, radio-HPLC. In kind it is physicochemical. The settings on record: 4 hr post HPLC purification. Here is the method:
^18F-DEG-VS (100 μL, 1 mCi) and 30 μL of borate buffer (pH 8.5) were added into Neurotensin (100 μg, […]) or (Ac)-NT and the reaction mixture was incubated at room temperature for 5-10 min. The reaction was quenched by acetic acid (5%, 600 μL) and product was purified by radio HPLC using Method 1. The retention time of ^18F-DEG-VS-NT was 25.6 min and (^18F-DEG-VS)2-NT was not observed. […] An aliquot of the solution was then analyzed by radio-HPLC to determine the radiochemical purify. The retention time of ^18F-DEG-VS-(Ac)-NT was 28.4 min.

The target of a further series is T1, NTR1 (Homo sapiens, UniProt P30989).
T1 construct: host or cells: HT-29 human colon adenocarcinoma cells (intact, adherent)
T1 sequence (P30989 whole entry): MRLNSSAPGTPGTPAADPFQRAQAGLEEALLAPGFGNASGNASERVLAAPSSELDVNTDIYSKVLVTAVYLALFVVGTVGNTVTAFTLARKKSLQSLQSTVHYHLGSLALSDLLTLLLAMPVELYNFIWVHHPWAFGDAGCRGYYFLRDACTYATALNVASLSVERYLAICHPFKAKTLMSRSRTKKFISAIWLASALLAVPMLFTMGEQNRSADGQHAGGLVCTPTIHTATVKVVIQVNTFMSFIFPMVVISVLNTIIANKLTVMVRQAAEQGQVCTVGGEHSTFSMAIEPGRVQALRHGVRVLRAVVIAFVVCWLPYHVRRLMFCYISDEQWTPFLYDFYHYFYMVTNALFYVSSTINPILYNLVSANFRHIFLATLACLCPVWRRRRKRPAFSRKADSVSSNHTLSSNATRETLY
The series is described as follows: competitive cell-binding assay with 125I-NT(8-13) in HT-29 cells. The settings on record: 1 hr at 37° C, n=3, read-out: IC50, inhibition of binding of 125I-NT(8-13) to NTR1 positive HT-29 cells.

A word on the IC50: it is the midpoint of a concentration-inhibition curve.

Where a SMILES comes first, the peptide text is derived from it. [ ]: non-standard residue; d: D form. The star is where a group is joined. ξ: configuration not given here. ξGly(4-Pip(1-amidino)) = N=C(N)N1CCC(C(N)C(=O)O)CC1; ξGly(piperidin-4-yl) = NC(C(=O)O)C1CCNCC1; Tle = CC(C)(C)[C@H](N)C(=O)O; X1 = O=S(=O)(CCOCCOCCF)CC*

Protocol for NTR1: The human colon adenocarcinoma cell HT29 was obtained from American Type Culture Collection and maintained at 37° C. in a humidified atmosphere containing 5% CO2 in RPMI-1640, supplemented with 1% L-glutamine, 1% penicillin/streptomycin and 10% fetal bovine serum (Life Technologies, Inc.).
In detail, HT-29 cells were placed in 48-wells plates (1 million/0.4 mL/well) and were incubated for overnight. The cells were washed three times with binding buffer (50 mM Hepes, 125 mM NaCl, 7.5 mM KCl, 5.5 mM MgCl2, 1 mM EGTA, 5 g/L BSA, 2 mg/L chymostatin, 100 mg/L soybean trypsin inhibitor, 50 mg/L bacitracin, pH 7.4). […] After washing, cells were solubilized with 1 mol/L NaOH at 37° C. and the radioactivity was determined using a gamma counter. The best-fit 50% inhibitory concentration (IC50) values for HT-29 cells were calculated by fitting the data with nonlinear regression using GraphPad Prism (GraphPad Software). Experiments were performed on triplicate samples.

For the molecule `C=CS(=O)(=O)CCOCCOCC[18F]` [^18F-DEG-VS], in series [1], the “radiochemical purity after incubation in PBS” value is “more than 99%”.

For `CC(C)C[C@H](NC(=O)[C@@H](NC(=O)[C@H](Cc1ccc(O)cc1)NC(=O)[C@@H]1CCCN1C(=O)[C@H](CCCNC(=N)N)NC(=O)C(NC(=O)[C@@H]1CCCN1C(=O)C(NC(=O)[C@@H](N)CSCCS(=O)(=O)CCOCCOCCF)C1CCNCC1)C1CCN(C(=N)N)CC1)C(C)(C)C)C(=O)O` (stereo partly drawn) [^19F-DEG-VS-NT] (H-C(X1)[ξGly(piperidin-4-yl)]P[ξGly(4-Pip(1-amidino))]RPY[Tle]L-OH), on NTR1, the IC50 came to 2.03 ± 0.22 nM.

The values above are taken from US10471161B2, “Vinylsulfone-based 18F-labeling compositions and methods and uses thereof” (priority 2014, dated 2019).
